# Experimental data as given in PubChem BioAssay AID2060888 (Molecular Pharmacology Branch, DTP, NCI, 2025).
# Tested on: 695427-040-R-J1-PDC complex spheroid viability
# Test: Anticancer human tumor 695427-040-R-J1-PDC patient-derived colon adenocarcinoma cell line growth inhibition [RAS]
# Settings: for IC50: curve of first compound; for viability, T/C: stronger effect = lower value
# How it was run: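 Multi-cell-type spheroids: tumor cells plus HUVEC endothelial cells and mesenchymal stem cells. RAS-pathway inhibitors were combined with targeted agents, each dosed in half-log steps down from clinical Cmax, or from 10 microM when Cmax was unknown.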
# [1] = second compound 0.00316 µM, first compound 0.00316 µM
# [2] = second compound 0.00316 µM, first compound 0.01 µM
# [3] = second compound 0.00316 µM, first compound 0.0316 µM
# [4] = second compound 0.00316 µM, first compound 0.1 µM
# [5] = second compound 0.00316 µM, first compound 0.316 µM
# [6] = second compound 0.00316 µM, first compound 1 µM
# [7] = second compound 0.01 µM, first compound 0.00316 µM
# [8] = second compound 0.01 µM, first compound 0.01 µM
# [9] = second compound 0.01 µM, first compound 0.0316 µM
# [10] = second compound 0.01 µM, first compound 0.1 µM
# [11] = second compound 0.01 µM, first compound 0.316 µM
# [12] = second compound 0.01 µM, first compound 1 µM
# [13] = second compound 0.0316 µM, first compound 0.00316 µM
# [14] = second compound 0.0316 µM, first compound 0.01 µM
# [15] = second compound 0.0316 µM, first compound 0.0316 µM
# [16] = second compound 0.0316 µM, first compound 0.1 µM
# [17] = second compound 0.0316 µM, first compound 0.316 µM
# [18] = second compound 0.0316 µM, first compound 1 µM
# [19] = second compound 0.1 µM, first compound 0.00316 µM
# [20] = second compound 0.1 µM, first compound 0.01 µM
# [21] = second compound 0.1 µM, first compound 0.0316 µM
# [22] = second compound 0.1 µM, first compound 0.1 µM
# [23] = second compound 0.1 µM, first compound 0.316 µM
# [24] = second compound 0.1 µM, first compound 1 µM
# [25] = second compound 0.316 µM, first compound 0.00316 µM
# [26] = second compound 0.316 µM, first compound 0.01 µM
# [27] = second compound 0.316 µM, first compound 0.0316 µM
# [28] = second compound 0.316 µM, first compound 0.1 µM
# [29] = second compound 0.316 µM, first compound 0.316 µM
# [30] = second compound 0.316 µM, first compound 1 µM
# [31] = second compound 1 µM, first compound 0.00316 µM
# [32] = second compound 1 µM, first compound 0.01 µM
# [33] = second compound 1 µM, first compound 0.0316 µM
# [34] = second compound 1 µM, first compound 0.1 µM
# [35] = second compound 1 µM, first compound 0.316 µM
# [36] = second compound 1 µM, first compound 1 µM
# 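Also: viability read after seven days of drug exposure.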
# 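For viability, T/C in this document: 100% = DMSO vehicle control viability.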
compound,measurement,setting,value
C=CC(=O)Nc1cc(Nc2nccc(-c3cn(C)c4ccccc34)n2)c(OC)cc1N(C)CCN(C)C + C=CC(=O)N1CCN(c2nc(OCC3CCCN3C)nc3c(F)c(-c4nc(N)cc(C)c4C(F)(F)F)c(Cl)cc23)C(C)C1,IC50,second compound 0.00316 µM,406 nM
same,IC50,second compound 0.01 µM,500 nM
same,IC50,second compound 0.0316 µM,403 nM
same,IC50,second compound 0.1 µM,429 nM
same,IC50,second compound 0.316 µM,457 nM
same,IC50,second compound 1 µM,429 nM
same,"viability, T/C",[1],96.5%
same,"viability, T/C",[2],94.1%
same,"viability, T/C",[3],86.2%
same,"viability, T/C",[4],76.5%
same,"viability, T/C",[5],54.6%
same,"viability, T/C",[6],31.4%
same,"viability, T/C",[7],102%
same,"viability, T/C",[8],94.5%
same,"viability, T/C",[9],83.7%
same,"viability, T/C",[10],72.2%
same,"viability, T/C",[11],57.5%
same,"viability, T/C",[12],39.2%
same,"viability, T/C",[13],112%
same,"viability, T/C",[14],99.1%
same,"viability, T/C",[15],83.8%
same,"viability, T/C",[16],71%
same,"viability, T/C",[17],58.2%
same,"viability, T/C",[18],32.7%
same,"viability, T/C",[19],94.7%
same,"viability, T/C",[20],100%
same,"viability, T/C",[21],88%
same,"viability, T/C",[22],76.4%
same,"viability, T/C",[23],56.7%
same,"viability, T/C",[24],33%
same,"viability, T/C",[25],105%
same,"viability, T/C",[26],94.7%
same,"viability, T/C",[27],84.6%
same,"viability, T/C",[28],80.3%
same,"viability, T/C",[29],60.1%
same,"viability, T/C",[30],30.2%
same,"viability, T/C",[31],90.3%
same,"viability, T/C",[32],95.5%
same,"viability, T/C",[33],88.5%
same,"viability, T/C",[34],80.7%
same,"viability, T/C",[35],58.1%
same,"viability, T/C",[36],27.6%
CC(Nc1ccc2c(c1)OCCn1cc(N3C(=O)OCC3C(F)F)nc1-2)C(N)=O (stereo unspecified) + C=CC(=O)N1CCN(c2nc(OCC3CCCN3C)nc3c(F)c(-c4nc(N)cc(C)c4C(F)(F)F)c(Cl)cc23)C(C)C1,IC50,second compound 0.00316 µM,1470 nM
same,IC50,second compound 0.01 µM,838 nM
same,IC50,second compound 0.0316 µM,1580 nM
same,IC50,second compound 0.1 µM,2010 nM
same,IC50,second compound 0.316 µM,3130 nM
same,IC50,second compound 1 µM,2030 nM
same,"viability, T/C",[3],89.6%
same,"viability, T/C",[4],68.5%
same,"viability, T/C",[5],62.4%
same,"viability, T/C",[6],54.2%
same,"viability, T/C","second compound 0.00316 µM, first compound 3.16 µM",46.8%
same,"viability, T/C","second compound 0.00316 µM, first compound 10 µM",36.2%
same,"viability, T/C",[9],95.5%
same,"viability, T/C",[10],75.5%
same,"viability, T/C",[11],56.5%
same,"viability, T/C",[12],50.2%
same,"viability, T/C","second compound 0.01 µM, first compound 3.16 µM",43.5%
same,"viability, T/C","second compound 0.01 µM, first compound 10 µM",41.1%
same,"viability, T/C",[15],90.7%
same,"viability, T/C",[16],76.7%
same,"viability, T/C",[17],65.2%
same,"viability, T/C",[18],51.2%
same,"viability, T/C","second compound 0.0316 µM, first compound 3.16 µM",47%
same,"viability, T/C","second compound 0.0316 µM, first compound 10 µM",38.4%
same,"viability, T/C",[21],85.2%
same,"viability, T/C",[22],71%
same,"viability, T/C",[23],64.3%
same,"viability, T/C",[24],50.4%
same,"viability, T/C","second compound 0.1 µM, first compound 3.16 µM",49.6%
same,"viability, T/C","second compound 0.1 µM, first compound 10 µM",43.3%
same,"viability, T/C",[27],87.2%
same,"viability, T/C",[28],73.2%
same,"viability, T/C",[29],66.2%
same,"viability, T/C",[30],55.9%
same,"viability, T/C","second compound 0.316 µM, first compound 3.16 µM",50.8%
same,"viability, T/C","second compound 0.316 µM, first compound 10 µM",44.4%
same,"viability, T/C",[33],85.6%
same,"viability, T/C",[34],71%
same,"viability, T/C",[35],68%
same,"viability, T/C",[36],52%
same,"viability, T/C","second compound 1 µM, first compound 3.16 µM",47.8%
same,"viability, T/C","second compound 1 µM, first compound 10 µM",40.8%
O=C(c1ccc(F)c(F)c1Nc1ccc(I)cc1F)N1CC(O)([C@@H]2CCCCN2)C1 + C=CC(=O)N1CCN(c2nc(OCC3CCCN3C)nc3c(F)c(-c4nc(N)cc(C)c4C(F)(F)F)c(Cl)cc23)C(C)C1,IC50,second compound 0.00316 µM,37 nM
same,IC50,second compound 0.01 µM,39.8 nM
same,IC50,second compound 0.0316 µM,39.6 nM
same,IC50,second compound 0.1 µM,46.3 nM
same,IC50,second compound 0.316 µM,46.6 nM
same,IC50,second compound 1 µM,56.4 nM
same,"viability, T/C",[1],81.5%
same,"viability, T/C",[2],75.2%
same,"viability, T/C",[3],50.1%
same,"viability, T/C",[4],32.4%
same,"viability, T/C",[5],13.7%
same,"viability, T/C",[6],6.97%
same,"viability, T/C",[7],85.8%
same,"viability, T/C",[8],74.7%
same,"viability, T/C",[9],54.9%
same,"viability, T/C",[10],30.2%
same,"viability, T/C",[11],15.9%
same,"viability, T/C",[12],2.53%
same,"viability, T/C",[13],86.5%
same,"viability, T/C",[14],72%
same,"viability, T/C",[15],58%
same,"viability, T/C",[16],27.8%
same,"viability, T/C",[17],15.4%
same,"viability, T/C",[18],4.49%
same,"viability, T/C",[19],87.7%
same,"viability, T/C",[20],73.1%
same,"viability, T/C",[21],60.8%
same,"viability, T/C",[22],32.6%
same,"viability, T/C",[23],16.4%
same,"viability, T/C",[24],5.49%
same,"viability, T/C",[25],82.8%
same,"viability, T/C",[26],86.4%
same,"viability, T/C",[27],55.4%
same,"viability, T/C",[28],31.6%
same,"viability, T/C",[29],15.2%
same,"viability, T/C",[30],2.92%
same,"viability, T/C",[31],78.8%
same,"viability, T/C",[32],81.7%
same,"viability, T/C",[33],60.2%
same,"viability, T/C",[34],37.8%
same,"viability, T/C",[35],15.1%
same,"viability, T/C",[36],3.14%
